Like-named read-outs stand apart in the source and are kept apart here. No end group written: not given here.
Experiments:
[1] = tested on: human microglial cell line CHME; test: Phagocytosis of beta-amyloid 1-42 peptide by CHME cells; type: cell-based; settings: Example 18
Method: Phagocytosis of beta-amyloid 1-42 peptide by the human microglial cell line CHME was observed after the addition of TLR2 agonist containing adjuvants Protollin and Pam3CysLip peptide. […] The synthetic peptide sequence of the Pam3Cys Lip peptide is described herein: Pam3Cys—SQ EPAAPAAEAT PAAEAP. Protollin was used at concentration 1 ug per ml based on the LPS content from Shigella flexneri. Pam3Cys lip peptide was used at concentration of 5 ug per ml of the pure tri-palmitoylated peptide.
Additionally, cells were imaged using 42 HiLyte 488 Fluo (Anaspec, Inc.) at 2 ug per ml in DMEM complete media (Invitrogen). Lysotracker red staining was performed and slides were mounted and co-stained with DAPI to show the nucleus (blue). […] Lysotracker red reagent was purchased from Invitrogen and used as manufacturer recommendations.

[2] = tested on: spatial learning and memory; test: T-water maze in APP/PS1 mice; type: in vivo, APPSwe/PS1 mice; settings: for behaviour as assessed by T water maze testing: Example 21, twelve weekly injections, vs non treated mice; for cognitive functions, T-water maze: Example 22, vs PBS
Method: Five groups of APPSwe/PS1 mice received one a week for a period of 12 weeks the following treatment: • Gr1: APPSwe/PS1+NaCl 0.9% n(=20), i.p. injections • Gr4: APPSwe/PS1+CRX527 (20 μg/mouse, 130 μl, n=10), i.p. injections • Gr5: […] (50 μg/mouse, 130 μl, n=10), i.p. injections • Gr8 APPSwe/PS1+AS15 ( 1/10th of human dose, 50 μl, n=10), i.m. injections • Gr9: APPSwe/PS1+AS01B ( 1/10th of human dose, 50 μl, n=10), i.m. injections
Mice were tested during the “light on” phase of the day. Behavioral experimenter was blinded to the genetic and treatment status of animals. To assess hippocampal-dependent spatial learning and memory, mice were trained in the T-water maze task. In this paradigm, we evaluate the mouse's ability to remember the spatial location of submerged platform. The T-maze apparatus (length of stem, 64 cm; length of arms, 30 cm; width, 12 cm; height of walls, 16 cm) was made of clear fiberglass and filled with water (23±1° C.) at a height of 12 cm. A platform (11×11 cm) was placed at the end of the target arm and was submerged 1 cm below the surface. The acquisition phase allows to evaluate animals for left-right spatial learning. During the first two trials, platforms were placed on each arms of the maze to test the spontaneous turning preference of the mouse. After these two trials, the least chosen arm was reinforced by the escape platform. The mice were placed in the stem of the T-maze and choose to swim either left or right until they found the submerged platform and escape to it, to a maximum of 60 s. After reaching the platform, the mice remained on it for 20 s and then were immediately placed back in the maze. […] Repeated trials were presented on the same day up to a maximum of 48 trials. A rest period of at least 10-15 min intervened between each block of 10 trials. A mouse was considered to have learned the task when it made no errors in a block of five consecutive trials. The reversal learning phase was then conducted 48 h later. During this phase, the same protocol was repeated, except that the mice were trained to find the escape platform on the opposite side to that on which they had learned on acquisition phase. The number of trials to reach the criterion (five of five correct choices made on consecutive trials) was measured as well as the latency to find the escape platform.

[3] = tested on: CD11b+ peripheral blood monocytes; test: Ex vivo uptake assay of Aβ1-42; type: cell-based, C57BL/6 mice; settings: Example 19, FIG. 20; QS21 5 μg i.m.
Method: Preparation of cells: Peripheral blood was drawn from C57BL/6 mice via cardiac puncture with lithium-heparin as anticoagulant, 24-hours after injection of the adjuvants used herein. Red blood cell lysis was performed twice on pooled blood with Ammonium Chloride-based Buffer (Sigma, Steinheim, Germany) and cells were counted with the EasyCount™ System (Immunicon). […]
FACS analysis: cells were harvested after incubation with fluorescent Aβ peptide with Trypsin/EDTA and cold PBS and washed three times. 500,000 cells were incubated in 96-well plate for 10 min. on ice in the presence of Rat anti-Mouse CD16/CD32 (clone 2.4G2—BD Fc Block™) and further stained for 30 min. with a combination of the following directly conjugated antibodies at their pre-determined optimal concentration: PE-Hamster anti-Mouse CD3 (clone 145-2C11), Rat anti-Mouse CD45R/B220 (clone RA3-6B2), Rat anti-Mouse Ly-6G (clone 1A8), Mouse anti-Mouse NK1.1 (clone PK136), APC-conjugated Rat anti-Mouse CD11b (clone M1/70), PE-Cy7-conjugated Hamster anti-Mouse CD11c (clone HL3), (all from BD PharMingen). […]
Samples were acquired on a flow cytometer (BD FACSCanto II) and data analyzed with the FACSDiva software (BD Biosciences). […]

[4] = tested on: Lineage-CD11b+ monocytes in peripheral blood; test: Monocyte analysis and counting after adjuvant injection in mice; type: in vivo, C57BL/6 mice
Method: (§1) 24-Hours after injection of the TLR adjuvants, peripheral blood was drawn from C57BL/6 mice via cardiac puncture with lithium-heparin as anticoagulant. Red blood cell lysis was performed twice on pooled blood with Ammonium Chloride-based Buffer (Sigma, Steinheim, Germany) and cells were counted with the EasyCount™ System (Immunicon). […] Cells were finally washed three times and fixed for 15 min. with a 2% paraformaldehyde solution in PBS. Fluorescence minus one (FMO) controls were always included in the assays for fluorescent compensation setting. Samples were acquired on a flow cytometer (BD FACSCanto II) and data analyzed with the FACSDiva software (BD Biosciences). Monocytes were identified by their Side/Forward scatter properties and gated as CD3-/CD45R/B220-/Ly-6G-/NK1.1-(Lineage-)/CD11b+ cells. CD11b+ monocyte frequency was reported as a percentage of the total cells excluding debris.
as §1, with “24 hours” for “24-Hours”, “each immunomodulator,” for “the TLR adjuvants,”, “min” for “min.”, “monocytes” for “monocyte”
Cells were finally washed twice and fixed for 15 min. with a 2% paraformaldehyde solution in PBS. FMOs controls were always included in the assays. Samples were acquired on a flow cytometer (BD FACSCanto II) and data analyzed with the FACSDiva software (BD Biosciences). Monocytes were identified and counted by their Side/Forward scatter properties, excluding debris and gated as CD3-/CD45R/B220-/Ly-6G-/NK1.1-(Lineage-)/CD11 b+ cells.

[5] = tested on: Aβ plaques; test: Aβ total plaque loading, stereological analysis of brain sections; type: in vivo, APPSwe/PS1 mice
[6] = tested on: cytokines and chemokines in sera; type: in vivo, C57BL/6 mice; settings: for levels of TNF-α and IL-6: i.p.
Method: Mice (n=5) received 50 μl of adjuvant formulations by i.m. injection for the PBS, AS03, AS01B and AS04D. PBS or LPS or MPL were injected using the intraperitoneal route and sera were collected at 2 and 6 h time points. Whole blood was collected by cardiac puncture from mice and centrifuged on a vacutainer blood collection tube containing gel for serum separation. Serum samples were cleared by centrifugation and stored at −80° C. until analysis. Protein levels in the cleared sera samples were measured by cytokine-specific beads (Millipore, USA) using the Luminex™ platform.
To determine whether the low inflammatory response observed in the previous in vitro experiments can be reproduced in vivo, we measured several cytokines and chemokines in the sera of C57BL/6 mice 2 and 6 h following a single intraperitoneal injection of either MPL or LPS. […] Noteworthy, IL-1β is not increased in response to MPL in contrast to LPS treatment.

Compound: Pam3Cys—SQ EPAAPAAEAT PAAEAP (Pam3Cys-SQEPAAPAAEATPAAEAP) [Pam3CysLip peptide, TLR2 agonist, tri-palmitoylated peptide]
- phagocytosis ([1]; 5 ug per ml, pre-incubation 18 hrs): 86 % of cells
- amyloid phagocytic activity ([1]; compared to PBS, Protollin 1 ug per ml, Pam3Cys lip peptide 5 ug per ml): higher amyloid phagocytic activity

Compound: CCCCCCCCCCC[C@H](CC(=O)N[C@H]1[C@H](OC[C@H](NC(=O)C[C@@H](CCCCCCCCCCC)OC(=O)CCCCCCCCC)C(=O)O)O[C@H](CO)[C@@H](OP(=O)(O)O)[C@@H]1OC(=O)C[C@@H](CCCCCCCCCCC)OC(=O)CCCCCCCCC)OC(=O)CCCCCCCCC [CRX527]
- behaviour as assessed by T water maze testing [2]: significant improvements in behaviour

Compound: QS21 [reference compound]
- Aβ uptake by peripheral blood monocytes [3]: does not promote Aβ uptake
- activated Ly6C+ monocytes ([4]; Example 19, single i.m. injection, 24 hrs): 75%
- number of monocytes ([4]; Example 19, single i.m. injection, after 24 hrs, QS21 5 μg): 9.1 % of total peripheral white blood cells

Compound: 3-O-desacyl-4′-monophosphoryl lipid A [3D MPL]
- plaque loading, combined data of Example 21 and 22 ([5]; ANOVA-2, P<0.01, intra peritoneal): statistical significant plaque loading reduction
- brain histology of amyloid plaques ([5]; Example 21, FIG. 26, immunofluorescence 6E10): more compacted plaques with less total area
- Amyloid beta plaque number ([5]; Example 21, 50 μg/mouse i.p., once a week for 12 weeks): statistically significant reduction in Amyloid beta plaque number
- Aβ amyloid plaque level in the brain ([5]; Example 22, FIG. 27B, intra peritoneal route): trend of reducing the Aβ amyloid plaque
- levels of TNF-α and IL-6 ([6]; 2 h post injection): modest increase
- innate cytokine profile ([6]; Example 28, 3D MPL i.p., AS01B i.m., data not shown): attenuated cytokine profile compared to LPS
- most of the cytokine and chemokine levels ([6]; Example 28, single intraperitoneal injection, 2 and 6 h): substantially lower than those of LPS-treated animals
- levels of TNF-α and IL-6 ([6]; after 6 h): essentially abolished
- IL-1β ([6]; single i.p. injection, in contrast to LPS): not increased
- number of CD11b+ monocytes compared to the PBS control ([4]; Example 9, 5 ug/mouse, i.m.): about double
- monocyte numbers ([4]; Example 10, single i.m. injection, at 5 and 25 ug/mouse dose): stimulate monocyte numbers
- T-water tests, combined data of Example 21 and 22 ([2]; ANOVA-2 tests, FIG. 27C): statistical significance
- behaviour as assessed by T water maze testing [2]: significant improvements in behaviour
- cognitive functions, T-water maze ([2]; i.m. 12x weekly, CRX601 2 μg, CRX601 2 ug in AS03, 3D MPL 5 ug, AS01B 1/10 human dose, unpaired t-tests): significant improvement of their cognitive functions
- cognitive functions, T-water maze ([2]; intra peritoneal 50 ug per mouse, 12x weekly): significant improvement of their cognitive functions
